# Experiments:
# human SCN9A (Nav 1.7) = human SCN9A (Nav 1.7) (Homo sapiens, UniProt Q15858); experiment: Measurement of Na ion current (Nav 1.7) by automated patch clamp assay in cells stably-expressing human SCN9A; assay type: cell-based; conditions: compound concentration 10 μmol/L, holding potential inactivating 50% Nav 1.7 channel (around −60 mV); for inhibition at 10 µM: read-out: Inhibitory rate (%) of Na ion current
# Procedure: Test 1: Measurement of Na Ion Current in Voltage-Dependent Na Channel Gene Expressed Cell
# Nav 1.7 current was measured by automated patch clamp assay using cells stably-expressing human SCN9A.
# Cells Stably-Expressing Human SCN9A
# Tetracycline-induced cells stably-expressing SCN9A were obtained from ChanTest Corporation. The cells were passaged in Ham's F-12 medium containing 10% fetal bovine serum, 100 units/mL Penicillin-Streptomycin, 0.01 mg/mL Blasticidin, and 0.4 mg/mL Zeocin. The day before the measurement, the medium was replaced with Ham's F-12 medium containing 1 μg/mL tetracycline, 100 μmol/L sodium butyrate, 10% fetal bovine serum, and 100 units/mL Penicillin-Streptomycin. Next day, the Na ion current was measured by automated patch clamp assay.
# Electrophysiologic Measurement of Na Ion Current
# The Na ion current was measured by automated patch clamp assay using the following extracellular solution and intracellular solution.
# Extracellular solution (mmol/L): NaCl 130, MgCl2 2, CaCl2 2, CdCl2 0.1, NiCl2 0.1, Tetraethylammonium-Cl 18, 4-aminopyridine 1, HEPES 10, (adjusting pH 7.4 with NaOH)
# Intracellular solution (mmol/L): CsF 120, EGTA 10, NaCl 15, HEPES 10, (adjusting pH 7.2 with CsOH)
# The control of the stimulating pulse and the data acquisition were carried out using EPC10 amplifier and Patch Master Software (HEKA). Data were sampled at 10 kHz, and low-pass filtered at 3 kHz. All the measurements were carried out at room temperature. The holding potential was set at a potential inactivating 50% Nav 1.7 channel (around −60 mV), and depolarizing pulse of 20 milliseconds (+10 mV) was given once. […] The inhibitory rate of the Na ion current by the test compounds was calculated according to the following calculating formula with the peak current value generated by the depolarizing pulse. Inhibitory rate of Na ion current (%)=100×[(Peak current value in the absence of Test Compound)−(Peak current value in the presence of Test Compound)]/(Peak current value in the absence of Test Compound) Result: […]
# [1] = test system: rats streptozotocin (STZ)-induced diabetic peripheral neuropathy model; experiment: Analgesic effect (von Frey test) in streptozotocin-induced diabetic peripheral neuropathic pain model; assay type: in vivo, rat; conditions: orally administered 3 mg/kg, one hour before measuring, male Wistar rats
# Procedure: Test 2: Evaluation of Analgesic Effect in Streptozotocin-Induced Diabetic Peripheral Neuropathic Pain Models
# Using some typical compounds among the compounds of the present invention, the inhibitory effect for neuropathic pain was determined through the evaluation of analgesic effect in rats streptozotocin (STZ)-induced diabetic peripheral neuropathy model.
# The disease animal model was prepared by means of a partially-modified method of Fox et al. (Pain 81, 307-316, 1999). STZ was intraperitoneally administered to 9-week old male Wistar rats in 45 mg/kg of body weight to prepare animal model suffering from diabetic peripheral neuropathy.
# The analgesic effect was evaluated by von Frey test. Specifically, mechanical sensitivity was measured by applying hairs (von Frey hair) to the plantar surface of the animal's hind paw, and then the reaction thresholds (50% paw withdrawal thresholds) for the mechanical stimulation was determined by using a formula based on Chaplan et al. (Journal of Neuroscience Methods 53, 55-63, 1994).
# One and two days before evaluating the test compounds, the reaction thresholds were measured to obtain an average thereof, and the average value was used as a reference value obtained before the test compounds would be administered. […]
# In the evaluation test of the test compounds, the reaction thresholds were measured after administering each test compound. […]
# [2] = Metabolic stability test in liver microsome (human); assay type: in vitro ADME; conditions: NADPH, 37° C., 30 minutes, dealkyl metabolite product (Reference example 5-7) assayed
# Procedure: (§1) Test 3: Metabolic Stability Test in Liver Microsome
# (§2) To a solution obtained by mixing 4 μL of human or rat liver microsome (produced by Xenotech, 20 mg/mL), 100 μL of 100 mM phosphate buffer solution (pH 7.4), and 74 μL of ultrapure water were added 2 μL of 1 μM DMSO solution of the test compound and further 40 μL of 10 mM aqueous NADPH (produced by Oriental Yeast Co., ltd.), and then the mixture was incubated at 37° C. for 30 minutes. After the incubation, 50 μL of the reaction solution was added to methanol to cease the metabolic reaction. The quenched solution was centrifuged at 4° C. at 4500 rpm for 5 minutes, and the supernatant was filtrated. 100 μL of the supernatant was mixed with 100 μL of 10 mM aqueous ammonium acetate, and the mixture was analyzed with LC (Shimadzu, NexeraX2)-MS (AB Sciex, TripleTOF5600) to determine the amount of the corresponding metabolite product in the mixture.
# [3] = Metabolic stability test in liver microsome (rat); assay type: in vitro ADME; conditions: NADPH, 37° C., 30 minutes, dealkyl metabolite product (Reference example 5-7) assayed
# Procedure: as §1, §2
# Sequence of human SCN9A (Nav 1.7) (Q15858 whole entry): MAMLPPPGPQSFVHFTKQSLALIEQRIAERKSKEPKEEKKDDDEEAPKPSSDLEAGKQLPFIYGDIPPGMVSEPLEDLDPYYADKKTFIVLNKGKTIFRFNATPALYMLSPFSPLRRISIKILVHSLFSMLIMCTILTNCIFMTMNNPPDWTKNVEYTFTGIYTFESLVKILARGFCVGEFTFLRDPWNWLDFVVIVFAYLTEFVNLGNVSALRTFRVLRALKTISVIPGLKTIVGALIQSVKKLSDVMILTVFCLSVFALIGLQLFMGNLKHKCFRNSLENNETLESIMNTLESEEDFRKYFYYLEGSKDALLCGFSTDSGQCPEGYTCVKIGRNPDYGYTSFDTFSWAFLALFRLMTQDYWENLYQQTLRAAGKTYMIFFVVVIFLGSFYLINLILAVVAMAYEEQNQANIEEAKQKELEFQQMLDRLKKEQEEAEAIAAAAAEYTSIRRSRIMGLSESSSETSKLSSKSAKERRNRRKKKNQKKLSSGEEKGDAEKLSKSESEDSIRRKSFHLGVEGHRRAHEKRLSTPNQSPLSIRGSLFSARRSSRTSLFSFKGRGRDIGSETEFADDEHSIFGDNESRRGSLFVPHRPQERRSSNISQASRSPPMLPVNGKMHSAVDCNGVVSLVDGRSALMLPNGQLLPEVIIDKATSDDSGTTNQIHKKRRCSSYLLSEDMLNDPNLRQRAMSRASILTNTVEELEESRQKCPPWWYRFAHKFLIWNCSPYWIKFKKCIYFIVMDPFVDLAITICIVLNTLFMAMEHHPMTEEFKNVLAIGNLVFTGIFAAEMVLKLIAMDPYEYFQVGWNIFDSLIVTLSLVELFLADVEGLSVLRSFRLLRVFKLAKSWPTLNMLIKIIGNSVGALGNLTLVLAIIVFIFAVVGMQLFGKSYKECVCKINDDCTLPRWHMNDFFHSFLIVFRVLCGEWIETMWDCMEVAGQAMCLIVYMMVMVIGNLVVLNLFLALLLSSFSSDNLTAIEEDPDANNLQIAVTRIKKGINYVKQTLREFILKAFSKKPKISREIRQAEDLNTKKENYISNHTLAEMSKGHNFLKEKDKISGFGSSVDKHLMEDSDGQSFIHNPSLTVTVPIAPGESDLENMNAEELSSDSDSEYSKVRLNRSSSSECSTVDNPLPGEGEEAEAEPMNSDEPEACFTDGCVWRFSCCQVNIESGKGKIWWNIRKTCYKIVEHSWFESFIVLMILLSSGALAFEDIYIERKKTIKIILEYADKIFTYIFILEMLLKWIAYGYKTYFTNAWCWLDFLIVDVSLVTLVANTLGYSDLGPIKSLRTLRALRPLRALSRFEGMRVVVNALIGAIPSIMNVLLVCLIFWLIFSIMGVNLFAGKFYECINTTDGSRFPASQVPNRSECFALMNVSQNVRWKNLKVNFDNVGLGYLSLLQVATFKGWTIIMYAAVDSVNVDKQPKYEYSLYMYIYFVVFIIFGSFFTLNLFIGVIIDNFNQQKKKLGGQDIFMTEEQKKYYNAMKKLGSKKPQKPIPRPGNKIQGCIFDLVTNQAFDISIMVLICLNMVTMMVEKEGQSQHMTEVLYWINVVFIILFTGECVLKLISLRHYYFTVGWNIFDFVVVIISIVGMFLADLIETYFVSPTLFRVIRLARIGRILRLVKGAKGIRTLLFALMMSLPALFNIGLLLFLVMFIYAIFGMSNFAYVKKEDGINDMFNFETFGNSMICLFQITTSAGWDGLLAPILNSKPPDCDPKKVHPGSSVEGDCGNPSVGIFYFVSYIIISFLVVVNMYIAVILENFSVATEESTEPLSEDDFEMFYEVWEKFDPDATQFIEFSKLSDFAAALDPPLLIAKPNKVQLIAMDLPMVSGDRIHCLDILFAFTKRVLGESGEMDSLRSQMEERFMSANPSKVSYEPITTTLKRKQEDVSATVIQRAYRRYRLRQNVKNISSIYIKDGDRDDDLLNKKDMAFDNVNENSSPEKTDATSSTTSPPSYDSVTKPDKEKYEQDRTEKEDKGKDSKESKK
Compound,Inhibitory rate (%) of Na ion current (human SCN9A (Nav 1.7)) [%],"extension width of reaction thresholds (50% paw withdrawal threshold, after minus before administration) [1] [g]","Rate of generating the metabolite product, human [2] [pmol/min/mg protein]","Rate of generating the metabolite product, rat [3] [pmol/min/mg protein]",inhibition at 10 µM (human SCN9A (Nav 1.7)) [%]
"1-[6-(4-fluorophenoxy)-1H-benzimidazol-1-yl]-2-methyl (1,1-^2H2) propan-2-ol [Example 1]",36,–,–,–,–
"2-methyl-1-(6-{[5-(trifluoromethyl)pyridin-2-yl]oxy}-1H-benzimidazol-1-yl) (1,1-^2H2)propan-2-ol [Example 2]",36,5.0,0.026,0.260,–
"4-[6-(4-chlorophenoxy)-1H-benzimidazol-1-yl]-2-methyl(4,4-^2H2)butan-2-ol [Example 3]",40,–,0.069,0.40,–
"[2H]C([2H])(n1cnc2ccc(Oc3ccc(OC(F)(F)F)cc3)cc21)C1(O)COC1 [Example 4, 3-[{6-[4-(trifluoromethoxy)phenoxy]-1H-benzimidazol-1-yl}(^2H2)methyl]oxetan-3-ol]",–,–,–,–,68
"[2H]C([2H])(n1cnc2ccc(-c3ccc(C(F)(F)F)cc3OC)cc21)C1(O)COC1 [Example 5, 3-[{6-[2-methoxy-4-(trifluoromethyl)phenyl]-1H-benzimidazol-1-yl}(^2H2)methyl]oxetan-3-ol]",–,–,–,–,55

# — US11066372B2, “Deuterated benzimidazole compound and medical use thereof” (Sumitomo Dainippon Pharma Co., Ltd., priority 2017, dated 2021)
